# Data reported in US20230059463A1, “3-(2-BROMO-4-ALKYNYL-6-ALKOXYPHENYL)-SUBSTITUTED 5-SPIROCYCLOHEXYL-3-PYRROLIN-2-ONES AND THEIR USE AS HERBICIDES” (Bayer Aktiengesellschaft, priority 2019, published 2023).
# Key:
# Format in all cases: in vivo
# [1] = system: Alopecurus myosuroides; assay: Pre-emergence herbicidal effect; settings: 80 g/ha, scored visually after 3 weeks, 100% = plants have died, 0% = like control plants
# Excerpt: (§1) Seeds of monocotyledonous and dicotyledonous weed plants and crop plants are laid out in sandy loam soil in wood-fiber pots and covered with soil. The compounds of the invention, formulated in the form of wettable powders (WP) or as emulsion concentrates (EC), are then applied to the surface of the covering soil as aqueous suspension or emulsion at a water application rate equating to 600 to 800 L/ha with addition of 0.2% wetting agent.
# (§2) After the treatment, the pots are placed in a greenhouse and kept under good growth conditions for the trial plants. The damage to the test plants is scored visually after a test period of 3 weeks by comparison with untreated controls (herbicidal activity in percent (%): 100% activity=the plants have died, 0% activity=like control plants).
# [2] = system: Avena fatua; assay: Pre-emergence herbicidal effect; settings: 80 g/ha, scored visually after 3 weeks, 100% = plants have died, 0% = like control plants
# Excerpt: as §1, §2
# [3] = system: Echinochloa crus-galli; assay: Pre-emergence herbicidal effect; settings: 80 g/ha, scored visually after 3 weeks, 100% = plants have died, 0% = like control plants
# Excerpt: as §1, §2
# [4] = system: Hordeum murinum; assay: Pre-emergence herbicidal effect; settings: 80 g/ha, scored visually after 3 weeks, 100% = plants have died, 0% = like control plants
# Excerpt: as §1, §2
# [5] = system: Lolium rigidum; assay: Pre-emergence herbicidal effect; settings: 80 g/ha, scored visually after 3 weeks, 100% = plants have died, 0% = like control plants
# Excerpt: as §1, §2
# [6] = system: Setaria viridis; assay: Pre-emergence herbicidal effect; settings: 80 g/ha, scored visually after 3 weeks, 100% = plants have died, 0% = like control plants
# Excerpt: as §1, §2
# [7] = system: Alopecurus myosuroides; assay: Post-emergence herbicidal effect; settings: 80 g/ha, post-emergence at one-leaf stage, assessed visually after about 3 weeks; 100% = plants have died, 0% = like control plants
# Procedure: (§3) Seeds of monocotyledonous and dicotyledonous weed and crop plants are laid out in sandy loam soil in wood-fiber pots, covered with soil and cultivated in a greenhouse under good growth conditions. 2 to 3 weeks after sowing, the test plants are treated at the one-leaf stage. The compounds of the invention, formulated in the form of wettable powders (WP) or as emulsion concentrates (EC), are then sprayed onto the green parts of the plants as aqueous suspension or emulsion at a water application rate equating to 600 to 800 l/ha with addition of 0.2% wetting agent. After the test plants have been left to stand in the greenhouse under optimal growth conditions for about 3 weeks, the action of the preparations is assessed visually in comparison to untreated controls (herbicidal action in per cent (%): 100% activity=the plants have died, 0% activity=like control plants).
# [8] = system: Echinochloa crus-galli; assay: Post-emergence herbicidal effect; settings: 80 g/ha, post-emergence at one-leaf stage, assessed visually after about 3 weeks; 100% = plants have died, 0% = like control plants
# Procedure: as §3
# [9] = system: Hordeum murinum; assay: Post-emergence herbicidal effect; settings: 80 g/ha, post-emergence at one-leaf stage, assessed visually after about 3 weeks; 100% = plants have died, 0% = like control plants
# Procedure: as §3
# [10] = system: Lolium rigidum; assay: Post-emergence herbicidal effect; settings: 80 g/ha, post-emergence at one-leaf stage, assessed visually after about 3 weeks; 100% = plants have died, 0% = like control plants
# Procedure: as §3
# [11] = system: Setaria viridis; assay: Post-emergence herbicidal effect; settings: 80 g/ha, post-emergence at one-leaf stage, assessed visually after about 3 weeks; 100% = plants have died, 0% = like control plants
# Procedure: as §3
# [12] = system: Digitaria sanguinalis; assay: Post-emergence herbicidal effect; settings: 80 g/ha, post-emergence at one-leaf stage, assessed visually after about 3 weeks; 100% = plants have died, 0% = like control plants
# Procedure: as §3
Structure (SMILES),Pre-emergence action against ALOMY (herbicidal activity in percent) [1] [%],Pre-emergence action against AVEFA (herbicidal activity in percent) [2] [%],Pre-emergence action against ECHCG (herbicidal activity in percent) [3] [%],Pre-emergence action against HORMU (herbicidal activity in percent) [4] [%],Pre-emergence action against LOLRI (herbicidal activity in percent) [5] [%],Pre-emergence action against SETVI (herbicidal activity in percent) [6] [%],Post-emergence action against ALOMY (herbicidal action in per cent) [7] [%],Post-emergence action against ECHCG (herbicidal action in per cent) [8] [%],Post-emergence action against HORMU (herbicidal action in per cent) [9] [%],Post-emergence action against LOLRI (herbicidal action in per cent) [10] [%],Post-emergence action against SETVI (herbicidal action in per cent) [11] [%],Post-emergence action against DIGSA (herbicidal action in per cent) [12] [%]
CC#Cc1cc(Br)c(C2=C(OC(=O)C(C)C)C3(CCCC(OCCOC)C3)NC2=O)c(OC)c1 (centres unmarked) [Example 1.1.16],100,100,100,100,100,100,100,100,100,100,100,–
C#Cc1cc(Br)c(C2=C(O)C3(CCCC(OCCOC)C3)NC2=O)c(OC)c1 (centres unmarked) [Example 1.1.05],90,90,100,90,100,100,90,80,–,80,90,80
"CC#Cc1cc(Br)c(C2=C(OC(=O)OCC)C3(CCCC(OCCC)C3)NC2=O)c(OC)c1 (centres unmarked) [Example 1.1.11, 3-[2-Bromo-6-methoxy-4-(prop-1-yn-1-yl)phenyl]-2-oxo-7-propoxy-1-azaspiro[4.5]dec-3-en-4-yl ethyl carbonate]",–,–,–,–,–,–,–,–,100,–,–,–
C#Cc1cc(Br)c(C2=C(OC(=O)OCC)C3(CCCC(OCCC)C3)NC2=O)c(OC)c1 (centres unmarked) [Example 1.1.03],90,90,100,90,100,100,80,90,–,80,100,90
"CC#Cc1cc(Br)c(C2=C(O)C3(CCCC(OCCC)C3)NC2=O)c(OC)c1 (centres unmarked) [Example 1.1.09, 3-[2-Bromo-6-methoxy-4-(prop-1-yn-1-yl)phenyl]-7-propoxy-1-azaspiro[4.5]decane-2,4-dione]",100,100,100,100,100,100,90,90,100,90,90,–
C#Cc1cc(Br)c(C2=C(OC(=O)C(C)C)C3(CCCC(OCCOC)C3)NC2=O)c(OC)c1 (centres unmarked) [Example 1.1.08],100,90,100,90,100,100,90,80,–,90,90,90
CCOC(=O)OC1=C(c2c(Br)cc(C#CBr)cc2OC)C(=O)NC12CCCC(OCCOC)C2 (centres unmarked) [Example 1.1.25],80,–,–,–,90,100,90,90,–,80,90,80
C#Cc1cc(Br)c(C2=C(OC(=O)OCC)C3(CCCC(OCCOC)C3)NC2=O)c(OC)c1 (centres unmarked) [Example 1.1.07],90,90,100,90,100,100,80,80,–,80,90,90
COCCOC1CCCC2(C1)NC(=O)C(c1c(Br)cc(C#CBr)cc1OC)=C2O (centres unmarked) [Example 1.1.23],90,–,–,–,90,100,90,90,–,80,100,80
CC#Cc1cc(Br)c(C2=C(OC(=O)OCC)C3(CCCC(OCCOC)C3)NC2=O)c(OC)c1 (centres unmarked) [Example 1.1.15],100,100,100,100,100,100,100,100,100,100,100,–
C#Cc1cc(Br)c(C2=C(OC(=O)C(C)C)C3(CCCC(OCCC)C3)NC2=O)c(OC)c1 (centres unmarked) [Example 1.1.04],100,90,100,90,100,100,90,80,–,80,100,90
CC#Cc1cc(Br)c(C2=C([O-])C3(CCCC(OCCOC)C3)NC2=O)c(OC)c1.[Na+] (centres unmarked) [Example 1.1.14],100,100,100,100,100,100,80,90,80,90,90,–
CC#Cc1cc(Br)c(C2=C(OC(=O)C(C)C)C3(CCCC(OCCC)C3)NC2=O)c(OC)c1 (centres unmarked) [Example 1.1.12],100,90,100,100,100,100,–,–,–,–,–,–
